How the values were obtained:
C57Black mice = experiment: Blood biochemistry of naive mice; format: in vivo, mouse; details: 3 mg/kg/day, 4 weeks
Description: Supplementary Figure 8 : Toxicity analysis of HV -3in naïve mice .
We performed a toxicity analysis of HV-3 in mice. Six -week-old C57Black mice were treated with saline or peptide HV-3 at 3mg/kg/day by Alzet pump implantation. After 4- week treatment, the plasma, blood and whole mouse bodies of mice were collected. Examination on blood chemistry (Supplementary Table 1), hematology (Supplementary Table 2) and general necropsy of mice were performed at the Animal Diagnostic Laboratory at Stanford University. The experimenter who conducted the analysis was blind to the treatment groups. Automated hematology was performed on the Sysmex XT-2000iV analyzer system. Blood smears were made for all full CBC samples and reviewed by a medical technologist. Manual differentials were performed as indicated by species and automated analysis. Chemistry analysis was performed on the Siemens Dimension Xpand analyzer. […]
Student’s t test. Four-week sustained treatment with HV-3 by pump implantation had no effects on blood chemistry (Supplementary Table 1), hematology (Supplementary Table 2), and gross necropsy of naïve mice when compared to mice treated with saline. A four-week treatment with HV-3 had […] on immuno-density of CD3, a marker of T-cell for adaptive immune response, in the brains and spleens of naïve mice (a). Treatment with HV-3 had no effects on the size and weight of the spleens (b). […]
Table 1: Effects of 4-w eek treatment w ith HV-3 on blood biochemistry of naïve mice […]
M ean SD M ean SD p-value unit n

[1] = tested on: wt mice (YAC128 littermates); experiment: Motor activity of wt littermates of YAC128; format: in vivo, mouse; details: 3 to 12 months of age, 3 mg/kg/day
Description: YAC128 mice (Tg) and their age-matched wt littermates were implanted with an osmotic pump containing TAT control peptide or HV-3 peptide (3 mg/kg/day, each) starting from the age of 3 months. The pump was replaced once every month. By the age of 12 months, the treatments were terminated and the mouse samples were harvested for analysis.
Gross locomotor activity was assessed in R6/2 mice and age-matched wt littermates at the ages of 13 weeks and in YAC128 mice and age-matched wt littermates at the ages of 2, 3, 6, 9, and 12 months. In an activity chamber (Omnitech Electronics, Inc), mice were placed in the center of the chamber and allowed to explore while being tracked by an automated beam system (Vertax, Omnitech Electronics Inc). Distance moved, horizontal, vertical, and rearing activities were recorded. Because R6/2 mice were sensitive to changes in environment and handling, we only conducted one-hour locomotor activity analysis for R6/2 mice and wt littermates. We performed 24 h of locomotor activity analysis for YAC128 mice and their wt littermates.
The motor coordination and balance of YAC128 mice were tested on an accelerating Rotarod (IITC Life Sciences, Serials 8) at the ages of 2, 3, 6, 9 and 12 months. Training and baseline testing for motor function tasks were conducted at 2 months of age. […]

[2] = tested on: HdhQ111 / HdhQ7 mouse striatal cells; experiment: VCP mitochondrial level, mouse striatal cells (western blot); format: cell-based
Description: Immortalized striatal cell lines HdhQ111 mutant and HdhQ7 wt cells were obtained from the CHDI Foundation. Cells were cultured in DMEM supplemented with 10% FBS, 100 μg/ml penicillin, 100 μg ml^−1 streptomycin, and 400 μg ml^−1 G418. Cells were grown at 33 °C in a 5% CO2 incubator. Cells within 14 passages were used in all experiments.
For silencing Htt and VCP in HD striatal cells, control siRNA, mouse Htt and mouse VCP siRNA were purchased from Thermo Fisher Scientific. HdhQ7 and HdhQ111 cells were transfected either with control siRNA, or Htt or VCP siRNA using TransIT-TKO Transfection Reagent (Mirus Bio, LLC), according to the manufacturer's instructions. The sequences for the siRNAs used in this study are as follows: mouse Htt, 5′-[…]-3′; Mouse VCP, 5′-GAGAGCAACCUUCGUAAG-3′; control non-targeting siRNA, 5′-TTCTCCGAACGTGTCACGT-3′.
Cells were washed with cold PBS and incubated on ice for 30 min in a lysis buffer (250 mM sucrose, 20 mM HEPES-NaOH, pH 7.5, 10 mM KCl, 1.5 mM MgCl2, 1 mM EDTA, protease inhibitor cocktail and phosphatase inhibitor cocktail). Mouse brains were minced and homogenized in the lysis buffer and then placed on ice for 30 min. Collected cells or tissue were disrupted 20 times by repeated aspiration through a 25-gauge needle, followed by a 30-gauge needle. The homogenates were spun at 800 g for 10 min at 4 °C, and the resulting supernatants were spun at 10,000 g for 20 min at 4 °C. The pellets were washed with lysis buffer and spun at 10,000 g again for 20 min at 4 °C. The final pellets were suspended in lysis buffer containing 1% Triton X-100 and were mitochondrial-rich lysate fractions. The supernatant was centrifuged at 100,000 g, 4 °C, for 1 h, the pellets were suspended in lysis buffer containing 1% Triton X-100 as ER fractions. The final supernatant was cytosolic fractions. The mitochondrial proteins VDAC, the ER protein WFS1 and the cytosolic protein Enolase were used as loading controls for mitochondrial, ER and cytosolic fractions, respectively.
Protein concentrations were determined by Bradford assay. […]

SMILES: CSCC[C@H](NC(=O)[C@@H](NC(=O)[C@H](CC(C)C)NC(=O)[C@@H](NC(=O)[C@H](Cc1c[nH]cn1)NC(=O)CCCCCNC(=O)[C@H](CCCNC(=N)N)NC(=O)[C@H](CCCNC(=N)N)NC(=O)[C@H](CCCNC(=N)N)NC(=O)[C@H](CCC(N)=O)NC(=O)[C@H](CCCNC(=N)N)NC(=O)[C@H](CCCNC(=N)N)NC(=O)[C@H](CCCCN)NC(=O)[C@H](CCCCN)NC(=O)[C@H](CCCNC(=N)N)NC(=O)CNC(=O)[C@@H](N)Cc1ccc(O)cc1)C(C)C)C(C)C)C(=O)N[C@@H](CS)C(=O)N[C@@H](C)C(=O)N[C@H](C(N)=O)[C@@H](C)O [HV-3]
- ALT (C57Black mice; mean, n = 4/group): 71.00 U/L
- AST (C57Black mice; mean, n = 4/group): 237.25 U/L
- Albumin (C57Black mice; mean, n = 4/group): 2.95 g/dL
- Alkaline Phosphatase (C57Black mice; mean, n = 4/group): 108.00 IU/L
- Anion Gap (C57Black mice; mean, n = 4/group): 33.08 mmol/L
- BUN (C57Black mice; mean, n = 4/group): 27.50 mg/dL
- Carbon Dioxide (C57Black mice; mean, n = 4/group): 16.45 mmol/L
- Chloride (C57Black mice; mean, n = 4/group): 109.00 mmol/L
- Creatinine (C57Black mice; mean, n = 4/group): 0.40 mg/dL
- Globulin (C57Black mice; mean, n = 4/group): 2.20
- Glucose (C57Black mice; mean, n = 4/group): 312.25 mg/dL
- Na/K Ratio (C57Black mice; mean, n = 4/group): 20.96
- Phosphorus (C57Black mice; mean, n = 4/group): 8.45 mg/dL
- Potassium (C57Black mice; mean, n = 4/group): 7.28 mmol/L
- Sodium (C57Black mice; mean, n = 4/group): 151.25 mmol/L
- T.Protein (C57Black mice; mean, n = 4/group): 5.15 g/dL
- Total Bilirubin (C57Black mice; mean, n = 4/group): 0.13 mg/dL
- Calcium (C57Black mice; mean, n = 4/group, p 0.04 versus saline): 9.78 mg/dL
- blood chemistry (overall) (C57Black mice; versus saline): no effects
- motor activity of wt mice [1]: did not affect motor activity in wt mice
- VCP translocation to mitochondria ([2]; HdhQ111 cells, HV-3 3 μM per day for 3 days versus TAT, n=3): abolished VCP translocation to the mitochondria
- VCP mitochondrial levels, wt ([2]; wt counterparts of the HD models): only minor effects
